Data set [1] concerns Mus musculus. Kind of data set: In vivo inverse agonist activity at RORgamma in wild type BALB/c ByJ Rj mouse model of imiquimod-induced skin inflammation model assessed as attenuation of imiquimod-induced epidermal hyperplasia at 1% administered topically twice daily for 7 days dosed 2 hrs before and 6 hrs after imiquimod administration measured on day 8 by hematoxylin and eosin staining-based histological analysis. In kind it is functional.

Data set [2] deals with T1, Retinoic acid receptor gamma (Homo sapiens, UniProt P13631).
T1 sequence (P13631 whole entry): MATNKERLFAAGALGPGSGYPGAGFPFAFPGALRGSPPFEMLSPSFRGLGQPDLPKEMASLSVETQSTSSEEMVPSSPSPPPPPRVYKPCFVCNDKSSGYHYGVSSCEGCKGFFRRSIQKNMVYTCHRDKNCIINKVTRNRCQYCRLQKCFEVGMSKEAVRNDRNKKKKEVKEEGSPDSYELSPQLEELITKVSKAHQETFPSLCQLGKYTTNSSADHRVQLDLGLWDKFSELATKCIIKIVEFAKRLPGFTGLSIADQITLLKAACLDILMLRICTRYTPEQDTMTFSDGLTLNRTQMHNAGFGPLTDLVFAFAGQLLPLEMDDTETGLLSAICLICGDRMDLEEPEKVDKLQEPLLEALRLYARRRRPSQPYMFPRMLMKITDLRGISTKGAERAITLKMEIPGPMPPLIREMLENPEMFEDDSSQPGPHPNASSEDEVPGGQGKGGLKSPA
Kind of data set: Inverse agonist activity at RARgamma (unknown origin) expressed in human HeLa-derived HG5LN cells transfected with the GAL4 DNA-binding domain fused to the RARgamma ligand-binding domain assessed as inhibition of transcriptional activity after 18 hrs by luminescence-based luciferase reporter gene assay. The class given is cell-based. A general note: A reporter such as luciferase makes a cellular process visible.

Data set [3] in a line: Phototoxicity against human neonatal keratinocytes assessed as cell viability preincubated for 30 mins before 5 J/cm2 UV light irradiation for 15 mins followed by treatment medium replacement with fresh culture medium after 24 hrs by neutral red dye-based assay. The note with it: 0.25 h.
The target of data set [4] is T2, Oxysterols receptor LXR-beta (Homo sapiens, UniProt P55055).
T2 sequence (P55055 whole entry): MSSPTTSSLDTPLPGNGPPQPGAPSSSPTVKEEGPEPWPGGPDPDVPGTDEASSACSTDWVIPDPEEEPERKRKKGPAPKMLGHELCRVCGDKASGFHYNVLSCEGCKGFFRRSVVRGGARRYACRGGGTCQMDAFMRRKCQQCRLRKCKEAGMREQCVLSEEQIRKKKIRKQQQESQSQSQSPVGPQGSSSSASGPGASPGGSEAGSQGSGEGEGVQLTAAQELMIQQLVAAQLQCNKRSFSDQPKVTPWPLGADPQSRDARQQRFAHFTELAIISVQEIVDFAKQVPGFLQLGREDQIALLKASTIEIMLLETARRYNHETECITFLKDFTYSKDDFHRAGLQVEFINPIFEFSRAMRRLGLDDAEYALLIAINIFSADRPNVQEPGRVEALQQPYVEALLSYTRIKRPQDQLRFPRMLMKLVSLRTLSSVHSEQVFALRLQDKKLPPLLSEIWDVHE
Description: Activity at LXRbeta (unknown origin) expressed in human HeLa-derived HG5LN cells transfected with the GAL4 DNA-binding domain fused to the LXRbeta ligand-binding domain assessed as inhibition of transcriptional activity after 18 hrs by luminescence-based luciferase reporter gene assay

The nature of data set [5]: Solubility of the compound in PG/EtOH96 (3/7) solution incubated for 24 hrs by UV spectrometry. The class given is physicochemical.
The test system of data set [6] is TK6. Kind of data set: Genotoxicity in human TK6 cells incubated for 3 hrs in presence of aroclor-1254-induced rat S9 fraction followed by 27 hrs recovery period by Giemsa staining dependent optical microscopy based micronucleus test. The class given is toxicity, cell-based. The note with it: s9, 3 h.
Data set [7] in a line: Intrinsic clearance in human hepatocytes assessed per million cells at 1 uM incubated for 5 to 90 mins by LC-MS/MS method. To be noted: read-out: CLH. In kind it is ADME, cell-based, Hepatocyte.
Data set [8] deals with TK6. In words: Genotoxicity in human TK6 cells incubated for 27 hrs in absence of aroclor-1254-induced rat S9 fraction by Giemsa staining dependent optical microscopy based micronucleus test. In kind it is toxicity, cell-based. To be noted: tk6, 27 h.
For data set [9], the system named is Salmonella typhimurium. Kind of data set: Genotoxicity in Salmonella typhimurium TA98 in presence of aroclor-1254-induced rat S9 fraction by Ames test. In kind it is toxicity, organism-based. To be noted: salmonella enterica subsp. enterica serovar typhimurium.
For data set [10], the system named is Salmonella typhimurium. Kind of data set: Genotoxicity in Salmonella typhimurium TA100 in absence of aroclor-1254-induced rat S9 fraction by Ames test. In kind it is toxicity, organism-based. The note with it: salmonella enterica subsp. enterica serovar typhimurium.
For data set [11], the system named is TK6. Kind of data set: Genotoxicity in human TK6 cells incubated for 3 hrs in absence of aroclor-1254-induced rat S9 fraction followed by 27 hrs recovery period by Giemsa staining dependent optical microscopy based micronucleus test. The class given is toxicity, cell-based. The note with it: tk6, 3 h.
Data set [12] has as its system Mus musculus. Kind of data set: In vivo inverse agonist activity at RORgamma in wild type BALB/c ByJ Rj mouse model of imiquimod-induced skin inflammation model assessed as attenuation of imiquimod-induced epidermal hyperplasia at 6% administered topically twice daily for 7 days dosed 2 hrs before and 6 hrs after imiquimod administration measured on day 8 by hematoxylin and eosin staining-based histological analysis. The class given is functional.

The test system of data set [13] is Salmonella typhimurium. In words: Genotoxicity in Salmonella typhimurium TA98 in absence of aroclor-1254-induced rat S9 fraction by Ames test. In kind it is toxicity, organism-based. The note with it: salmonella enterica subsp. enterica serovar typhimurium.
In another data set the target is T3, Vitamin D3 receptor (Homo sapiens, UniProt P11473).
T3 sequence (P11473 whole entry): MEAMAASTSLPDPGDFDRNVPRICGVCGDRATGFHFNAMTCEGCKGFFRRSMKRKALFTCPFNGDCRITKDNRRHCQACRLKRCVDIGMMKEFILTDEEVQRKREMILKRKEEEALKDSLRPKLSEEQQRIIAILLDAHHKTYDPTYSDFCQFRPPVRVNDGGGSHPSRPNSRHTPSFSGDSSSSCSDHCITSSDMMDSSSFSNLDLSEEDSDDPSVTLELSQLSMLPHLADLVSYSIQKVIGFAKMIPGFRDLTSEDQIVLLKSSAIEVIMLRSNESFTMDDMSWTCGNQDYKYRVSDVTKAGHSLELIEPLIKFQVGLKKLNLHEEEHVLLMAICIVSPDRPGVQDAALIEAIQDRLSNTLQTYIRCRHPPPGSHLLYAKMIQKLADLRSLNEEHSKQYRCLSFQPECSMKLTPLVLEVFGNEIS

A short description of data set [14]: Stability of the compound in PG/EtOH96 (3/7) solution at 40 degC after 1 month by HPLC analysis. The class given is physicochemical. The note with it: read-out: Stability.
For data set [15], the system named is TK6. Kind of data set: Genotoxicity in human-derived p53-competent TK6 cells expressing GADD45a-dependent green fluorescent protein assessed as decrease in cell viability after 48 hrs in absence of Sprague-Dawley rat S9 fraction by FACS analysis. In kind it is toxicity, cell-based. To be noted: tk6, 48 h. For orientation: A flow cytometer gives signals particle by particle.

Values after ≈ are worked out from the molar mass of the structure shown.

Description for Vitamin D3 receptor: Activity at VDR expressed in human HeLa-derived HDLN6 cells assessed as inhibition of transcriptional activity after 18 hrs by luminescence-based luciferase reporter gene assay

In general, IC50 refers to the concentration that inhibits the measured activity by half. As usually defined, the Kd is a measure of binding affinity in units of concentration. What is called solubility is how much of the substance goes into solution per volume. Low readings indicate little dissolved substance, high ones much dissolved substance. In the case of `CCc1ccc(N(CC(C)C)S(=O)(=O)c2ccc(OCC3CCOCC3)c([S@@](C)(=N)=O)c2)cc1`, the Activity with Mus musculus [1] is given as 35%; in [3], “Non-Toxic”; in the data set on TK6 [6], “Non-Toxic”; in the data set on TK6 [8], “Non-Toxic”; with Salmonella typhimurium [9], “Non-Toxic”; with Salmonella typhimurium [10], “Non-Toxic”. Moreover, the Activity entry in the data set with TK6 [11] is listed as “Non-Toxic”; in the data set on Mus musculus [12], 63%; with Salmonella typhimurium [13] it was “Non-Toxic”; in the data set on TK6 [15], “Non-Toxic”. The IC50 in data set [2] was above 10 µM. Further, the Kd (in [4]; at Vitamin D3 receptor) was above 10 µM in each case. In [5], this molecule showed a solubility at 24 h of 31 mM (≈ 15.8 mg/mL). Besides, the hepatocyte CLint at 1 µM in data set [7] is 180 µL/min/1e6 cells. Also, in [14], the remaining at 730.5 h was above 98%.
